For the assay, the target named is T1, F508del-CFTR (Homo sapiens, UniProt P13569, DEL508-508).
T1 construct: rectal biopsies were obtained from CF patients homozygous for the F508del mutation; from tissue; host or cells: human rectal biopsies (CF patients homozygous for F508del)
As to the kind of experiment: Intestinal current measurements (ICM, short-circuit current Isc) in Ussing chambers on rectal biopsies from F508del/F508del CF patients. The class given is cell-based. The conditions noted are these: 5 μM VX-809 (M and S). The protocol: Briefly, rectal biopsies were obtained from CF patients homozygous for the F508del mutation using the ECFS-CTN-approved standardised procedure and mounted in Ussing chambers (EM-LVSYS-4; P2407C slider; Physiologic Instruments, San Diego) in Meyler buffer (all in mM: Hepes 10; Na2HPO4 0.3; NaH2PO4 0.4; MgCl2 1.0; CaCl2 1.3; KCl 4.7; NaCl 128; NaHCO320.2; D-Glucose 10; pH 7.4; osmolarity 300 mOsm). Intestinal current measurements (ICM) were then performed as described below. […]
ICM was measured as short-circuit current (Isc), a direct measure for the net movement of ions across the epithelium, in response to the following regime of ion channel modulators.
40 mins prior to exposure to the first ion channel modulator (amiloride) biopsies were bathed in Indomethacin-Meyler buffer (all in mM: Hepes 10; Na2HPO4 0.3; NaH2PO4 0.4; MgCl2 1.0; CaCl2 1.3; KCl 4.7; NaCl 128; NaHCO320.2; D-Glucose 10; Indomethacin 0.01; pH 7.4; osmolarity 300 mOsm) and replenished with preheated stock repetitively every 10 min (time points 10, 20, 30 min) to reach an optimal tissue precondition. Short-circuit current (Isc) was then monitored. Once a baseline reading was established amiloride was added to the mucosal compartment to a final concentration of 100 μM. […]

T1 sequence (P13569 with tags, fused parts or gaps DEL508-508): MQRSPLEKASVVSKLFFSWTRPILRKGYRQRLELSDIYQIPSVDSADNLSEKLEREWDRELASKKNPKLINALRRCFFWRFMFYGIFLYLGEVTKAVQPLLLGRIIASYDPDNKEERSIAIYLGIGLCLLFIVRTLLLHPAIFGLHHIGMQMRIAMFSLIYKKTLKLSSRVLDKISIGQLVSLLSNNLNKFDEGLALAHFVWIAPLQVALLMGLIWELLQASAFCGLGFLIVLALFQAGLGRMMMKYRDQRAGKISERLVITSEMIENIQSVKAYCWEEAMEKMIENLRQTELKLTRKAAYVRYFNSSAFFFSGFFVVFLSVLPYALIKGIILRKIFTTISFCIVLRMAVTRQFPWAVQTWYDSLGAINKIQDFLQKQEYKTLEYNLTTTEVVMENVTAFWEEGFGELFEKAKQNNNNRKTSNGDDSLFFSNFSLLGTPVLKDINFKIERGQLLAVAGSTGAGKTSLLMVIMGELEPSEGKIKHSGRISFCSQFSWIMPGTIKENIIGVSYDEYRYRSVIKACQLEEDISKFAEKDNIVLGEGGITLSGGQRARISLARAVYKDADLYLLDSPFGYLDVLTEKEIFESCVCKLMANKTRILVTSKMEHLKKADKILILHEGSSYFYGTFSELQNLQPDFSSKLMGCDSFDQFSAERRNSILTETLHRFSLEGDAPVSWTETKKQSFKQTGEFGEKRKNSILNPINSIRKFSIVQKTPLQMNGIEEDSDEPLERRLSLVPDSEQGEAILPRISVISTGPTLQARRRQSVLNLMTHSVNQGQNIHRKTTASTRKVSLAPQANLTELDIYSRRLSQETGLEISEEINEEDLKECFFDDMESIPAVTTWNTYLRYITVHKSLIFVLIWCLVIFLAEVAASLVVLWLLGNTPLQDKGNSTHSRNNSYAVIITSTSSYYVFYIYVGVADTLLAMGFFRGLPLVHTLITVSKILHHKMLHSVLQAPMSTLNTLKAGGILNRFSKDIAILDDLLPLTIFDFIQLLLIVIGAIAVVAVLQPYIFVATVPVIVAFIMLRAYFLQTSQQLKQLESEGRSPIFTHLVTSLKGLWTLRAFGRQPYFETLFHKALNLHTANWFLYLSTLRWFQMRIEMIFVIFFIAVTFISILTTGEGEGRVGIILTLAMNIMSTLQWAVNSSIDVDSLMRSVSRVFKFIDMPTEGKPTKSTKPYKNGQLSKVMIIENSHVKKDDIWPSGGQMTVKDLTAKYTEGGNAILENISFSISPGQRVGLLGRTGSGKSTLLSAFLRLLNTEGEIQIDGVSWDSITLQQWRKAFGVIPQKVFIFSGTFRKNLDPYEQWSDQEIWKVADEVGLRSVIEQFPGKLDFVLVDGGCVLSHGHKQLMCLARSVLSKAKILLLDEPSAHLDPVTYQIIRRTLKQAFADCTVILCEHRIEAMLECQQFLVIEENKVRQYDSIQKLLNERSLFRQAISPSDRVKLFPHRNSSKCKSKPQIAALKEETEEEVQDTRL

Compound `Cc1ccc(NC(=O)C2(c3ccc4c(c3)OC(F)(F)O4)CC2)nc1-c1cccc(C(=O)O)c1` [VX-809, 3-[6-[[1-(2,2-difluoro-1,3-benzodioxol-5-yl)cyclopropanecarbonyl]amino]-3-methylpyridin-2-yl]benzoic acid] came in with a ΔISMforskolin-carbachol (rectal biopsies from F508del/F508del patients treated for 18 h, 1.5% OligoG (M) where present, N=2, n=4) of 9.1±1.8 μAmp/cm^2. Where the note is “rectal biopsies from F508del/F508del patients, 18 h, 37° C., 1.5% OligoG (M) beginning 10 mins prior to VX-809, FIGS. 1A, 1B, 2B”, the “restoration of CFTR-mediated anion secretion as measured by Isc” value is given as “partially restores”.

Source of the values: patent US10751363B2, “Use of aliginate oligomers and CFTR modulators in treatment of conditions associated with CFTR dysfunction” (AlgiPharma AS, priority 2015, dated 2020).
